Source: patent publication US12157730B2, “Heteroaryl derivative, method for producing same, and pharmaceutical composition comprising same as effective component” (VORONOI INC., priority 2019, dated 2024)

Tests used:
[1] = target: T1, Ba/F3 cell HER2 Exon20 ins YVMA (Homo sapiens, UniProt P04626, INS775YVMA); experiment: Ba/F3 cell proliferation suppression, HER2 Exon20 ins YVMA; format: cell-based; conditions: 72 hours after treatment, CellTiter-Glo
T1 construct: expressed in transfected cells; host or cells: Ba/F3
T1 sequence (P04626 with tags, fused parts or gaps INS775YVMA): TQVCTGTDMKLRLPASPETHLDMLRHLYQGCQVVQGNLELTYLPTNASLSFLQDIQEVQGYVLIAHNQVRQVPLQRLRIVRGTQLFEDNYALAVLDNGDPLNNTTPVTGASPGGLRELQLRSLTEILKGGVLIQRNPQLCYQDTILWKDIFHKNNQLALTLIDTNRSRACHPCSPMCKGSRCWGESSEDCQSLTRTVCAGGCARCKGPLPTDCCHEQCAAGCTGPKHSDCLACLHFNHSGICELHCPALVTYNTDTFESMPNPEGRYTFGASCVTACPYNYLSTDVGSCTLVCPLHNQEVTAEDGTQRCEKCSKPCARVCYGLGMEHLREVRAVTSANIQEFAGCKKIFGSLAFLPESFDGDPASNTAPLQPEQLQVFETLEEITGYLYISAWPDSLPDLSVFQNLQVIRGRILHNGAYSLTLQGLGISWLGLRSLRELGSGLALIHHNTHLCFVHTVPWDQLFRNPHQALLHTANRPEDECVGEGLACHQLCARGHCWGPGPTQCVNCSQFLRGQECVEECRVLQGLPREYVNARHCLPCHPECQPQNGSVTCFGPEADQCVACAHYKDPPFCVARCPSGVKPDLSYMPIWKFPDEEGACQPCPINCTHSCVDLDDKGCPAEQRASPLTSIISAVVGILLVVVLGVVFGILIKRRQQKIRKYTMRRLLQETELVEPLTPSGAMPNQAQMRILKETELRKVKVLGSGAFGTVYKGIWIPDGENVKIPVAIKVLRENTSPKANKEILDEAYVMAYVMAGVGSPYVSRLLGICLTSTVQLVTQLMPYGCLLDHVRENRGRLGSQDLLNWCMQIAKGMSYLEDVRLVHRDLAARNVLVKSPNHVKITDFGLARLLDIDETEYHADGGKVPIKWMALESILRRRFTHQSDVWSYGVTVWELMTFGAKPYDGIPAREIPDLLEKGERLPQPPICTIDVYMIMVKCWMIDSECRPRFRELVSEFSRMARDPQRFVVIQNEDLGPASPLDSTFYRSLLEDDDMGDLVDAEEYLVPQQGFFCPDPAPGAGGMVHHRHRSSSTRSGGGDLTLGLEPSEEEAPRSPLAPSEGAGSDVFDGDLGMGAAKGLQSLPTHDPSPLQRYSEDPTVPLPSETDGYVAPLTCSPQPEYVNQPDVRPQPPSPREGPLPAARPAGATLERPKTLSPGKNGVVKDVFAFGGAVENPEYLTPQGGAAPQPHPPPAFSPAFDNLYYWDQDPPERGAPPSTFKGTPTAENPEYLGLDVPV
Method: (§1) The following experiment was carried out to evaluate the suppression activity of the compounds according to the present invention against proliferation of Ba/F3 and lung cancer cells which express EGFR mutations.
(§2) Of the cancer cell lines expressing the EGFR gene, A549 was cultured after adding 10% FBS (HyClone) to DMEM (Invitrogen), and RPMI-1640 (Invitrogen) with 10% FBS was used for the other cancer cells. For the Ba/F3 cells, RPMI-1640 with 10% FBS and 5 ng/ml IL-3 (R&D Systems) was used. The transduced Ba/F3 cells were cultured by adding 1 ug/ml puromycin (Invitrogen) to the same medium.
(§3) 24 hours before treatment with the compounds, 3000 to 5000 cells were distributed into each well of a white clear bottom 96 well plate (Corning). The compounds were diluted in dimethylsulfoxide (dilution ratio 3:1; 12 concentrations total) and injected 0.5 ul each for a final concentration of 0.3 nM to 50 um. As for measurement of live cells, 72 hours after treatment with the compounds, a CellTiter-Glo luminescent cell-viability reagent (Promega) was used to store the cells at room temperature for 10 minutes, followed by measurement of luminescence using a reader (SynergyNeo, Biotek). Each test was repeated three times.
(§4) The result was calculated as a cell growth ratio (%) compared to a control. The program GraphPad Prism version 5.0 was used to draw the graphs and calculate the GI50 values.

[2] = Cancer cell proliferation suppression, A549; format: cell-based; conditions: A459; 72 hours after treatment, CellTiter-Glo
Method: as §1, §2, §3, §4

[3] = target: T2, Ba/F3 cell EGFR L858R (Homo sapiens, UniProt P00533, L858R); experiment: Ba/F3 cell proliferation suppression, EGFR L858R; format: cell-based; conditions: 72 hours after treatment, CellTiter-Glo
T2 construct: expressed in transfected cells; host or cells: Ba/F3
Method: as §1, §2, §3, §4

[4] = target: T3, Ba/F3 cell EGFR Exon20 ins NPH (Homo sapiens, UniProt P00533, INS773NPH); experiment: Ba/F3 cell proliferation suppression, EGFR Exon20 ins NPH; format: cell-based; conditions: for GI50: 72 hours after treatment, CellTiter-Glo; for Ba/F3 (NPH) Activity: GI50 class, Ba/F3 cell line with NPH inserted at Exon20 of EGFR, 72 hours
T3 construct: expressed in transfected cells; host or cells: Ba/F3
How it was run: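 Growth suppression determined as GI50 following 72 h exposure across 12 concentrations up to 50 um, with viability by luminescent ATP assay (CellTiter-Glo).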

[5] = system: Ba/F3 cell EGFR Exon20 ins H; experiment: Ba/F3 cell proliferation suppression, EGFR Exon20 ins H; format: cell-based; conditions: 72 hours after treatment, CellTiter-Glo
Method: as §1, §2, §3, §4

[6] = target: T4, Ba/F3 cell EGFR Exon20 ins ASV (Homo sapiens, UniProt P00533, INS769ASV); experiment: Ba/F3 cell proliferation suppression, EGFR Exon20 ins ASV; format: cell-based; conditions: 72 hours after treatment, CellTiter-Glo
T4 construct: expressed in transfected cells; host or cells: Ba/F3
Method: as §1, §2, §3, §4

[7] = system: Ba/F3 cell naive; experiment: Ba/F3 cell proliferation suppression, naive; format: cell-based; conditions: Mus musculus, BaF3; 72 hours after treatment, CellTiter-Glo
Method: as §1, §2, §3, §4

[8] = target: T5, Ba/F3 cell EGFR Exon20 ins FQEA (Homo sapiens, UniProt P00533, INS763FQEA); experiment: Ba/F3 cell proliferation suppression, EGFR Exon20 ins FQEA; format: cell-based; conditions: 72 hours after treatment, CellTiter-Glo
T5 construct: expressed in transfected cells; host or cells: Ba/F3
Method: as §1, §2, §3, §4

[9] = system: PC9GR; experiment: Lung cancer cell proliferation suppression, PC9GR; format: cell-based; conditions: 72 hours after treatment, CellTiter-Glo
Method: as §1, §2, §3, §4

[10] = system: Ba/F3 cell EGFR Del19/T790M; experiment: Ba/F3 cell proliferation suppression, EGFR Del19/T790M; format: cell-based; conditions: 72 hours after treatment, CellTiter-Glo
Method: as §1, §2, §3, §4

[11] = system: H1975; experiment: Lung cancer cell proliferation suppression, H1975; format: cell-based; conditions: Homo sapiens, NCI-H1975; 72 hours after treatment, CellTiter-Glo
Method: as §1, §2, §3, §4

[12] = target: T6, Ba/F3 cell EGFR L858R/T790M (Homo sapiens, UniProt P00533, L858R/T790M); experiment: Ba/F3 cell proliferation suppression, EGFR L858R/T790M; format: cell-based; conditions: 72 hours after treatment, CellTiter-Glo
T6 construct: expressed in transfected cells; host or cells: Ba/F3
Method: as §1, §2, §3, §4

[13] = system: PC9; experiment: Lung cancer cell proliferation suppression, PC9; format: cell-based; conditions: Homo sapiens, PC-9; 72 hours after treatment, CellTiter-Glo
Method: as §1, §2, §3, §4

[14] = target: T7, Ba/F3 cell EGFR Exon20 ins SVD (Homo sapiens, UniProt P00533, INS770SVD); experiment: Ba/F3 cell proliferation suppression, EGFR Exon20 ins SVD; format: cell-based; conditions: 72 hours after treatment, CellTiter-Glo
T7 construct: expressed in transfected cells; host or cells: Ba/F3
Method: as §1, §2, §3, §4

[15] = system: scanMAX kinase panel (EGFR mutant, ERBB2, ERBB4); experiment: DiscoverX (eurofin) KINOMEscan (scanMAX platform) kinase profiling; format: binding
From the text: It was confirmed that the above example compounds had high selectivity against EGFR series genes. Accordingly, these can be useful in the treating of cancers wherein this kinase is expressed. In particular, as they have substantially outstanding lung cancer cell line proliferation suppression, they can be useful in the treatment of lung cancer, breast cancer, and brain cancer.

Compound	GI50 [1]	GI50 [2]	GI50 [3]	GI50 [4]	Ba/F3 (NPH) Activity [4]	GI50 [5]	GI50 [6]	GI50 [7]	GI50 [8]	GI50 [9]	GI50 [10]	GI50 [11]	GI50 [12]	GI50 [13]	GI50 [14]	other results
C=CC(=O)Nc1cc(Nc2cc(N3OCC[C@@H]3c3ccccc3)ncn2)c(OC)cc1N1CCC(N(C)C)CC1 [Example 12, N-(2-(4-(dimethylamino)piperidine-1-yl)-4-methoxy-5-((6-((R)-3-phenylisoxazolidine-2-yl)pyrimidine-4-yl)amino)phenyl) acrylamide]	< 0.05 µM	> 15000 nM	< 0.05 µM	< 0.05 µM	A (GI50 < 50 nM)	< 0.05 µM	< 0.05 µM	≥ 5 µM	< 0.05 µM	5 nM	< 0.05 µM	8 nM	< 0.05 µM	12 nM	< 0.05 µM	
C=CC(=O)Nc1cc(Nc2cc(N3OCC[C@@H]3c3ccccc3)ncn2)ccc1N(C)CCN(C)C [Example 28]	< 0.05 µM		< 0.05 µM	< 0.05 µM	A (GI50 < 50 nM)	< 0.05 µM	< 0.05 µM	0.5 to 5 µM	< 0.05 µM		< 0.05 µM		< 0.05 µM		< 0.05 µM	
O=C(Nc1cnn2ccc(N3CCC[C@@H]3c3cc(F)ccc3F)nc12)N1CC[C@H](O)C1 [Larotrectinib]		4820 nM								14 nM		24 nM		5 nM		
C=CC(=O)Nc1cc(Nc2cc(N3OCC[C@@H]3c3ccccc3)ncn2)c(OC)cc1N1CCC(N2CCOCC2)CC1 [Example 11, N-(4-methoxy-2-(4-morpholinopiperidine-1-yl)-5-((6-((R)-3-phenylisoxazolidine-2-yl)pyrimidine-4-yl)amino)phenyl) acrylamide]		> 15000 nM			A (GI50 < 50 nM)					7 nM		9 nM		2 nM		
C=CC(=O)Nc1cc(Nc2cc(N3OCC[C@@H]3c3ccccc3)ncn2)ccc1N1CCN(C)CC1 [Example 29, N-(2-(4-methylpiperazine-1-yl)-5-((6-((R)-3-phenylisoxazolidine-2-yl)pyrimidine-4-yl)amino)phenyl) acrylamide]	< 0.05 µM		< 0.05 µM	< 0.05 µM	A (GI50 < 50 nM)	< 0.05 µM	< 0.05 µM	≥ 5 µM	< 0.05 µM		< 0.05 µM		< 0.05 µM		< 0.05 µM	
C=CC(=O)Nc1cc(Nc2nccc(-c3cn(C)c4ccccc34)n2)c(OC)cc1N(C)CCN(C)C [Osimertinib]		2410 nM								16 nM		36 nM		7 nM		
C=CC(=O)Nc1cc(Nc2cc(N3OCC[C@@H]3c3ccccc3)ncn2)c(OC)cc1N1CCN(CC)CC1 [Example 15, N-(2-(4-ethylpiperazine-1-yl)-4-methoxy-5-((6-((R)-phenylisoxazolidine-2-yl)pyrimidine-4-yl)amino)phenyl) acrylamide]	< 0.05 µM	> 15000 nM	< 0.05 µM	< 0.05 µM	A (GI50 < 50 nM)	< 0.05 µM	< 0.05 µM	≥ 5 µM	< 0.05 µM	6 nM	< 0.05 µM	13 nM	< 0.05 µM	7 nM	< 0.05 µM	
C=CC(=O)Nc1cc(Nc2cc(N3OCC[C@@H]3c3cc(F)cc(F)c3)ncn2)c(OC)cc1N1CCC(N2C[C@@H]3C[C@H]2CO3)CC1 [Example 239, N-(2-(4-((1S,4S)-2-oxa-5-azabicyclo[2.2.1]heptane-5-yl)piperidine-1-yl)-5-((6-((R)-3-(3,5-difluorophenyl)isoxazolidine-2-yl)pyrimidine-4-yl)amino)-4-methoxyphenyl) acrylamide]	< 0.05 µM		< 0.05 µM	< 0.05 µM	A (GI50 < 50 nM)		< 0.05 µM	≥ 5 µM	< 0.05 µM	5 nM	< 0.05 µM	1 nM	< 0.05 µM	1 nM	< 0.05 µM	% inhibition of scanMAX Kinase profiling ([15]; EGFR(E746-A750del)): 96%; % inhibition of scanMAX Kinase profiling ([15]; EGFR(G719C)): 100%; % inhibition of scanMAX Kinase profiling ([15]; EGFR(G719S)): 99%; % inhibition of scanMAX Kinase profiling ([15]; EGFR(L747-E749del, A750P)): 95%; % inhibition of scanMAX Kinase profiling ([15]; EGFR(L747-T751del.Sins)): 93%; % inhibition of scanMAX Kinase profiling ([15]; EGFR(L858R)): 100%; % inhibition of scanMAX Kinase profiling ([15]; EGFR(L858R.T790M)): 98%; % inhibition of scanMAX Kinase profiling ([15]; EGFR(L861q)): 97%; % inhibition of scanMAX Kinase profiling ([15]; EGFR(S752-I759del)): 82%; % inhibition of scanMAX Kinase profiling ([15]; EGFR(T790M)): 100%; % inhibition of scanMAX Kinase profiling ([15]; ERBB2): 100%; % inhibition of scanMAX Kinase profiling ([15]; ERBB4): 100%; suppression activity against the EGFR mutant and ERBB2 and ERBB4 ([15]; KINOMEscan scanMAX kinase profiling): high suppression activity
C=CC(=O)Nc1cc(Nc2cc(N3OCC[C@H]3c3ccccc3)ncn2)c(OC)cc1N1CCN(C)CC1 [Example 3, N-(4-methoxy-2-(4-methylpiperazine-1-yl)-5-((6((S)-3-phenylisoxazolidine-2-yl)pyrimidine-4-yl)amino)phenyl) acrylamide]	0.05 to 0.5 µM			0.05 to 0.5 µM	B (50 nM ≤ GI50 < 500 nM)	0.5 to 5 µM	0.05 to 0.5 µM	≥ 5 µM	< 0.05 µM		0.05 to 0.5 µM		0.5 to 5 µM		0.05 to 0.5 µM	
C=CC(=O)N1CCC(Oc2cc3c(Nc4ccc(Cl)c(Cl)c4F)ncnc3cc2OC)CC1 [Poziotinib]		> 15000 nM								20 nM		34 nM		1 nM		
C=CC(=O)Nc1cc(Nc2cc(N3OCC[C@@H]3c3ccccc3)ncn2)c(OC)cc1N1CC[C@@H](N(C)C)C1 [Example 13]	< 0.05 µM	> 15000 nM	< 0.05 µM	< 0.05 µM	A (GI50 < 50 nM)	< 0.05 µM	< 0.05 µM	≥ 5 µM	< 0.05 µM	64 nM	< 0.05 µM	63 nM	< 0.05 µM	12 nM	< 0.05 µM	
C=CC(=O)Nc1cc(Nc2cc(N3OCC[C@@H]3c3ccccc3)ncn2)c(OC)cc1N1CCN(C2CCN(C)CC2)CC1 [Example 10]	< 0.05 µM	> 15000 nM	< 0.05 µM	< 0.05 µM	A (GI50 < 50 nM)	< 0.05 µM	< 0.05 µM	≥ 5 µM	< 0.05 µM	10 nM	< 0.05 µM	13 nM	< 0.05 µM	14 nM	< 0.05 µM	
